Reference: PMC10539439 (Pharmacological Reports, 2023)

Experiment: Blood pressure, 24-h telemetric method, normotensive rats
Assay type: in vivo, rat
Details: 5 mg/kg
Method: The blood pressure of rats treated with the tested compound was measured for a 24 h period after ip treatment (5 mg/kg b.w.) with a special telemetric system Stellar (TSE-Systems, Germany).
Surgery: The operation was carried out over 30 min under sterile conditions. Rats were anaesthetized with ketamine and xylasine (intramuscular injection: 100 mg/kg and 10 mg/kg). Before surgery and for 7 days after, the animals were also treated with cefuroxime (20 mg/kg/day) via intramuscular injection and ketoprofen (5 mg/kg/day) via ip injection. […] The transmitter was sutured to the peritoneal cavity.
The rats were individually caged for 2 weeks to heal after surgical cut. The animals were then placed in pairs in cages to reduce their isolation stress. Blood pressure was measured: before ip administration of the compounds – time 0 min and 24 h thereafter.

[1] = telemetry, after first administration, time 0, n 6
[2] = telemetry, after first administration, time 0.25, n 6
[3] = telemetry, after first administration, time 0.5, n 6
[4] = telemetry, after first administration, time 0.75, n 6
[5] = telemetry, after first administration, time 1, n 6
[6] = telemetry, after first administration, time 1.25, n 6
[7] = telemetry, after first administration, time 1.5, n 6
[8] = telemetry, after first administration, time 1.75, n 6
[9] = telemetry, after first administration, time 2, n 6
[10] = telemetry, after first administration, time 3, n 6
[11] = telemetry, after first administration, time 4, n 6
[12] = telemetry, after first administration, time 5, n 6
[13] = telemetry, after first administration, time 6, n 6
[14] = telemetry, after first administration, time 7, n 6
[15] = telemetry, after first administration, time 8, n 6
[16] = telemetry, after first administration, time 9, n 6
[17] = telemetry, after first administration, time 10, n 6
[18] = telemetry, after first administration, time 11, n 6
[19] = telemetry, after first administration, time 12, n 6
[20] = telemetry, after first administration, time 13, n 6
[21] = telemetry, after first administration, time 14, n 6
[22] = telemetry, after first administration, time 15, n 6
[23] = telemetry, after first administration, time 16, n 6
[24] = telemetry, after first administration, time 17, n 6
[25] = telemetry, after first administration, time 18, n 6
[26] = telemetry, after first administration, time 19, n 6
[27] = telemetry, after first administration, time 20, n 6
[28] = telemetry, after first administration, time 21, n 6
[29] = telemetry, after first administration, time 22, n 6
[30] = telemetry, after first administration, time 23, n 6
[31] = telemetry, after first administration, time 24, n 6
[32] = telemetry, after forteenth administration, time 0, n 6
[33] = telemetry, after forteenth administration, time 0.25, n 6
[34] = telemetry, after seventh administration, time 0, n 6
[35] = telemetry, after seventh administration, time 0.25, n 6
[36] = telemetry, after seventh administration, time 0.5, n 6
[37] = telemetry, after seventh administration, time 0.75, n 6
[38] = telemetry, after seventh administration, time 1, n 6
[39] = telemetry, after seventh administration, time 1.25, n 6
[40] = telemetry, after seventh administration, time 1.5, n 6
[41] = telemetry, after seventh administration, time 1.75, n 6
[42] = telemetry, after seventh administration, time 2, n 6
[43] = telemetry, after seventh administration, time 3, n 6
[44] = telemetry, after seventh administration, time 4, n 6
[45] = telemetry, after seventh administration, time 5, n 6
[46] = telemetry, after seventh administration, time 6, n 6
[47] = telemetry, after seventh administration, time 7, n 6
[48] = telemetry, after seventh administration, time 8, n 6
[49] = telemetry, after seventh administration, time 9, n 6
[50] = telemetry, after seventh administration, time 10, n 6
[51] = telemetry, after seventh administration, time 11, n 6
[52] = telemetry, after seventh administration, time 12, n 6
[53] = telemetry, after seventh administration, time 13, n 6
[54] = telemetry, after seventh administration, time 14, n 6
[55] = telemetry, after seventh administration, time 15, n 6
[56] = telemetry, after seventh administration, time 16, n 6
[57] = telemetry, after seventh administration, time 17, n 6
[58] = telemetry, after seventh administration, time 18, n 6
[59] = telemetry, after seventh administration, time 19, n 6
[60] = telemetry, after seventh administration, time 20, n 6
[61] = telemetry, after seventh administration, time 21, n 6
[62] = telemetry, after seventh administration, time 22, n 6
[63] = telemetry, after seventh administration, time 23, n 6
[64] = telemetry, after seventh administration, time 24, n 6

N=C(N)N/N=C/c1c(Cl)cc(O)cc1Cl [4HOGuanabenz]
diastolic pressure, mean (rat, time 0.5): 94.25 mmHg
systolic pressure, mean (rat, time 0.5): 131.8 mmHg
diastolic pressure, mean (rat, time 0.75): 87.25 mmHg
systolic pressure, mean (rat, time 0.75): 118.5 mmHg
diastolic pressure, mean (rat, time 1): 82.5 mmHg
systolic pressure, mean (rat, time 1): 111.8 mmHg
diastolic pressure, mean (rat, time 1.25): 78.5 mmHg
systolic pressure, mean (rat, time 1.25): 107.3 mmHg
diastolic pressure, mean (rat, time 1.5): 79.75 mmHg
systolic pressure, mean (rat, time 1.5): 117.5 mmHg
diastolic pressure, mean (rat, time 1.75): 80.5 mmHg
systolic pressure, mean (rat, time 1.75): 111.3 mmHg
diastolic pressure, mean (rat, time 2): 78.75 mmHg
systolic pressure, mean (rat, time 2): 117.5 mmHg
diastolic pressure, mean (rat, time 3): 77 mmHg
systolic pressure, mean (rat, time 3): 109.8 mmHg
diastolic pressure, mean (rat, time 4): 80.5 mmHg
systolic pressure, mean (rat, time 4): 117 mmHg
diastolic pressure, mean (rat, time 5): 81 mmHg
systolic pressure, mean (rat, time 5): 116.5 mmHg
diastolic pressure, mean (rat, time 6): 77.5 mmHg
systolic pressure, mean (rat, time 6): 119.8 mmHg
diastolic pressure, mean (rat, time 7): 76.25 mmHg
systolic pressure, mean (rat, time 7): 117.3 mmHg
diastolic pressure, mean (rat, time 8): 66.75 mmHg
systolic pressure, mean (rat, time 8): 113.3 mmHg
diastolic pressure, mean (rat, time 9): 83.5 mmHg
systolic pressure, mean (rat, time 9): 131.8 mmHg
diastolic pressure, mean (rat, time 10): 70.75 mmHg
systolic pressure, mean (rat, time 10): 120.8 mmHg
diastolic pressure, mean (rat, time 11): 81.5 mmHg
systolic pressure, mean (rat, time 11): 125.3 mmHg
diastolic pressure, mean (rat, time 12): 77.25 mmHg
systolic pressure, mean (rat, time 12): 123.8 mmHg
diastolic pressure, mean (rat, time 13): 75.75 mmHg
systolic pressure, mean (rat, time 13): 113 mmHg
diastolic pressure, mean (rat, time 14): 73.25 mmHg
systolic pressure, mean (rat, time 14): 113.5 mmHg
diastolic pressure, mean (rat, time 15): 77.5 mmHg
systolic pressure, mean (rat, time 15): 113.3 mmHg
diastolic pressure, mean (rat, time 16): 79.5 mmHg
systolic pressure, mean (rat, time 16): 121.8 mmHg
diastolic pressure, mean (rat, time 17): 88.25 mmHg
systolic pressure, mean (rat, time 17): 124.5 mmHg
diastolic pressure, mean (rat, time 18): 76 mmHg
systolic pressure, mean (rat, time 18): 118.5 mmHg
diastolic pressure, mean (rat, time 19): 76 mmHg
systolic pressure, mean (rat, time 19): 117.5 mmHg
diastolic pressure, mean (rat, time 20): 66 mmHg
systolic pressure, mean (rat, time 20): 108.8 mmHg
diastolic pressure, mean (rat, time 21): 70.5 mmHg
systolic pressure, mean (rat, time 21): 103.3 mmHg
diastolic pressure, mean (rat, time 22): 74.5 mmHg
systolic pressure, mean (rat, time 22): 110.3 mmHg
diastolic pressure, mean (rat, time 23): 75.25 mmHg
systolic pressure, mean (rat, time 23): 116.3 mmHg
diastolic pressure, mean (rat, time 24): 72.75 mmHg
systolic pressure, mean (rat, time 24): 109.5 mmHg
diastolic pressure, mean [1]: 80.5 mmHg
systolic pressure, mean [1]: 126.2 mmHg
diastolic pressure, mean [2]: 92.75 mmHg
systolic pressure, mean [2]: 141 mmHg
diastolic pressure, mean [3]: 87.5 mmHg
systolic pressure, mean [3]: 127.3 mmHg
diastolic pressure, mean [4]: 78 mmHg
systolic pressure, mean [4]: 115.6 mmHg
diastolic pressure, mean [5]: 81.38 mmHg
systolic pressure, mean [5]: 117.3 mmHg
diastolic pressure, mean [6]: 76.88 mmHg
systolic pressure, mean [6]: 111 mmHg
diastolic pressure, mean [7]: 75.13 mmHg
systolic pressure, mean [7]: 106 mmHg
diastolic pressure, mean [8]: 80.13 mmHg
systolic pressure, mean [8]: 112.4 mmHg
diastolic pressure, mean [9]: 74.63 mmHg
systolic pressure, mean [9]: 107 mmHg
diastolic pressure, mean [10]: 78.75 mmHg
systolic pressure, mean [10]: 110.8 mmHg
diastolic pressure, mean [11]: 68.75 mmHg
systolic pressure, mean [11]: 107.9 mmHg
diastolic pressure, mean [12]: 80.88 mmHg
systolic pressure, mean [12]: 114.1 mmHg
diastolic pressure, mean [13]: 78 mmHg
systolic pressure, mean [13]: 111.6 mmHg
diastolic pressure, mean [14]: 71 mmHg
systolic pressure, mean [14]: 111.1 mmHg
diastolic pressure, mean [15]: 72.75 mmHg
systolic pressure, mean [15]: 110.8 mmHg
diastolic pressure, mean [16]: 77.88 mmHg
systolic pressure, mean [16]: 114.6 mmHg
diastolic pressure, mean [17]: 77.63 mmHg
systolic pressure, mean [17]: 114.9 mmHg
diastolic pressure, mean [18]: 70.75 mmHg
systolic pressure, mean [18]: 107.6 mmHg
diastolic pressure, mean [19]: 80.25 mmHg
systolic pressure, mean [19]: 121.9 mmHg
diastolic pressure, mean [20]: 74.5 mmHg
systolic pressure, mean [20]: 114.9 mmHg
diastolic pressure, mean [21]: 81.88 mmHg
systolic pressure, mean [21]: 122.6 mmHg
diastolic pressure, mean [22]: 71.63 mmHg
systolic pressure, mean [22]: 109.4 mmHg
diastolic pressure, mean [23]: 72.75 mmHg
systolic pressure, mean [23]: 108.4 mmHg
diastolic pressure, mean [24]: 76.75 mmHg
systolic pressure, mean [24]: 112.6 mmHg
diastolic pressure, mean [25]: 78.75 mmHg
systolic pressure, mean [25]: 115.3 mmHg
diastolic pressure, mean [26]: 79.5 mmHg
systolic pressure, mean [26]: 117.3 mmHg
diastolic pressure, mean [27]: 77 mmHg
systolic pressure, mean [27]: 117.8 mmHg
diastolic pressure, mean [28]: 76.63 mmHg
systolic pressure, mean [28]: 117.8 mmHg
diastolic pressure, mean [29]: 71.5 mmHg
systolic pressure, mean [29]: 109.5 mmHg
diastolic pressure, mean [30]: 73.38 mmHg
systolic pressure, mean [30]: 109.5 mmHg
diastolic pressure, mean [31]: 77.63 mmHg
systolic pressure, mean [31]: 114.3 mmHg
diastolic pressure, mean [32]: 70.25 mmHg
systolic pressure, mean [32]: 110.5 mmHg
diastolic pressure, mean [33]: 90.75 mmHg
systolic pressure, mean [33]: 139.3 mmHg
diastolic pressure, mean [34]: 74.83 mmHg
systolic pressure, mean [34]: 108.2 mmHg
diastolic pressure, mean [35]: 97.5 mmHg
systolic pressure, mean [35]: 141.8 mmHg
diastolic pressure, mean [36]: 76.75 mmHg
systolic pressure, mean [36]: 114.3 mmHg
diastolic pressure, mean [37]: 77.5 mmHg
systolic pressure, mean [37]: 111.5 mmHg
diastolic pressure, mean [38]: 76.75 mmHg
systolic pressure, mean [38]: 109.3 mmHg
diastolic pressure, mean [39]: 74.25 mmHg
systolic pressure, mean [39]: 106.8 mmHg
diastolic pressure, mean [40]: 74 mmHg
systolic pressure, mean [40]: 107.3 mmHg
diastolic pressure, mean [41]: 70.75 mmHg
systolic pressure, mean [41]: 102 mmHg
diastolic pressure, mean [42]: 67.25 mmHg
systolic pressure, mean [42]: 100.5 mmHg
diastolic pressure, mean [43]: 74 mmHg
systolic pressure, mean [43]: 109 mmHg
diastolic pressure, mean [44]: 74.75 mmHg
systolic pressure, mean [44]: 109.3 mmHg
diastolic pressure, mean [45]: 74.25 mmHg
systolic pressure, mean [45]: 110.3 mmHg
diastolic pressure, mean [46]: 79.75 mmHg
systolic pressure, mean [46]: 113.8 mmHg
diastolic pressure, mean [47]: 70.5 mmHg
systolic pressure, mean [47]: 113.3 mmHg
diastolic pressure, mean [48]: 78.75 mmHg
systolic pressure, mean [48]: 116.3 mmHg
diastolic pressure, mean [49]: 75.5 mmHg
systolic pressure, mean [49]: 119.5 mmHg
diastolic pressure, mean [50]: 65.5 mmHg
systolic pressure, mean [50]: 106 mmHg
diastolic pressure, mean [51]: 75.75 mmHg
systolic pressure, mean [51]: 117.3 mmHg
diastolic pressure, mean [52]: 65.5 mmHg
systolic pressure, mean [52]: 116.8 mmHg
diastolic pressure, mean [53]: 79.25 mmHg
systolic pressure, mean [53]: 121.5 mmHg
diastolic pressure, mean [54]: 74 mmHg
systolic pressure, mean [54]: 111.5 mmHg
diastolic pressure, mean [55]: 77.25 mmHg
systolic pressure, mean [55]: 113.3 mmHg
diastolic pressure, mean [56]: 71.5 mmHg
systolic pressure, mean [56]: 107.3 mmHg
diastolic pressure, mean [57]: 79 mmHg
systolic pressure, mean [57]: 122.3 mmHg
diastolic pressure, mean [58]: 77 mmHg
systolic pressure, mean [58]: 117.5 mmHg
diastolic pressure, mean [59]: 77 mmHg
systolic pressure, mean [59]: 120.5 mmHg
diastolic pressure, mean [60]: 76.25 mmHg
systolic pressure, mean [60]: 122.3 mmHg
diastolic pressure, mean [61]: 69.25 mmHg
systolic pressure, mean [61]: 110 mmHg
diastolic pressure, mean [62]: 68 mmHg
systolic pressure, mean [62]: 108 mmHg
diastolic pressure, mean [63]: 63.75 mmHg
systolic pressure, mean [63]: 107 mmHg
diastolic pressure, mean [64]: 67.5 mmHg
systolic pressure, mean [64]: 105 mmHg
